The text below walks through data of ChEMBL document CHEMBL5365407, “Design, synthesis and biological evaluation of nitric oxide-releasing 5-cyano-6-phenyl-2, 4-disubstituted pyrimidine derivatives” (Bioorg Med Chem Lett, 2023).

In one assay the test system is ECa-109 cell line. As to the kind of experiment: Antiproliferative activity against human Eca-109 cells measured after 72 hrs by MTT assay. The class given is functional, cell-based. The conditions noted are these: ECa-109, 72 h. (In general: Tetrazolium dyes change colour on reduction, which living cells bring about.)
In the next assay the test system is MGC-803. As to the kind of experiment: cells. The conditions noted are these: Homo sapiens, MGC-803, 72 h.
The next assay has as its system PC-3. As to the kind of experiment: Antiproliferative activity against human PC-3 cells measured after 72 hrs by MTT assay. The class given is functional, cell-based. The settings on record: PC-3, 72 h.
For the next assay, the system named is MCF7. The assay can be described thus: cells. The settings on record: Homo sapiens, MCF7, 72 h.
Another assay relates to Bel7402/5-FU. The assay can be described thus: Antiproliferative activity against human BEL-7402/5-FU cell. The class given is functional, cell-based.
Assay [1] concerns the target Lysine-specific histone demethylase 1A (Homo sapiens, UniProt O60341). As to the kind of experiment: Inhibition of LSD1 (unknown origin).

Each structure is given as a SMILES string.

Description for MCF7: Antiproliferative activity against human MCF7 cells measured after 72 hrs by MTT assay
Description for MGC-803: Antiproliferative activity against human MGC-803 cells measured after 72 hrs by MTT assay

The IC50 is the midpoint of a concentration-inhibition curve. A high value points to lower potency. Regarding `CCOc1ccc(Nc2nc(SCC(=O)N3CCN(CCOc4no[n+]([O-])c4S(=O)(=O)c4ccccc4)CC3)nc(-c3ccccc3)c2C#N)cc1`, the IC50 in the assay with ECa-109 cell line stood at 3.57 µM; in the assay with MGC-803, 2.95 µM; in the assay on PC-3 it was 2.84 µM; in the assay with MCF7, 5.43 µM.

Turning to `CCc1cccc(Nc2nc(SCC(=O)N3CCN(CCOc4no[n+]([O-])c4S(=O)(=O)c4ccccc4)CC3)nc(-c3ccccc3)c2C#N)c1`, the IC50 in the assay with ECa-109 cell line amounted to 4.1 µM; with MGC-803, 1.11 µM; in the assay with PC-3, 2.4 µM; with MCF7, 2.87 µM.

Take `O=C1C(NCCOc2no[n+]([O-])c2S(=O)(=O)c2ccccc2)=CC(=O)c2ncccc21`: the IC50 in the assay with Bel7402/5-FU worked out at 0.42 µM.

Turning to `N#Cc1c(Nc2ccccc2)nc(SCC(=O)N2CCC(Oc3no[n+]([O-])c3S(=O)(=O)c3ccccc3)C2)nc1-c1ccccc1` (stereo not drawn), the half-inhibitory concentration (IC50) with ECa-109 cell line turned out to be 4.39 µM; with MGC-803 it was 3.56 µM; in the assay on PC-3, 2.18 µM; with MCF7, 3.55 µM.

As for `N#Cc1c(Nc2ccccc2C(F)(F)F)nc(SCC(=O)N2CCN(CCOc3no[n+]([O-])c3S(=O)(=O)c3ccccc3)CC2)nc1-c1ccccc1`, the half-maximal inhibitory concentration (IC50) with ECa-109 cell line is 3.85 µM; in the assay on MGC-803, 1.67 µM; in the assay on PC-3, 3.02 µM; in the assay on MCF7, 2.26 µM.

On to `COc1ccc(/C=N/NC2NC(SCC(C)C)=NC(c3ccc(OC)cc3)=C2C#N)cc1` (stereo not drawn), for which the half-maximal inhibitory concentration (IC50) in assay [1] came out at 0.956 µM.
